Assay [1] has as its target T1, IRAK4 (Homo sapiens, UniProt Q9NWZ3).
T1 sequence (Q9NWZ3 1-460): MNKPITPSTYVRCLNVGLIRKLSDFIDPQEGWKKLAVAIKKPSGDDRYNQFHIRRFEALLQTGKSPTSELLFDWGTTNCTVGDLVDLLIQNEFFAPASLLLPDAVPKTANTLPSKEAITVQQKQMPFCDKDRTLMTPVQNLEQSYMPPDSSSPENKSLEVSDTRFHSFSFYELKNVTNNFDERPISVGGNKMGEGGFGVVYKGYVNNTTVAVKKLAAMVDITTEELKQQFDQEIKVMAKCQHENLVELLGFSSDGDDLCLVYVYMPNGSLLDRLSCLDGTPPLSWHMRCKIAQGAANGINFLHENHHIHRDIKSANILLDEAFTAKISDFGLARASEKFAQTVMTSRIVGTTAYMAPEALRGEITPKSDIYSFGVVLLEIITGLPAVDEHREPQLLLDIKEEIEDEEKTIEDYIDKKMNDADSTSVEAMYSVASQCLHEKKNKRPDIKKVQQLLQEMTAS
Description: WB detection of proteolysis (Western Blot, THP-1 cells). The class given is cell-based. The settings on record: Western Blot, THP-1 cells, 24 h; for DC50: read-out: DC50; for Dmax: read-out: Dmax. An outline of the steps: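 IRAK4 level in RIPA lysates read by Western blot with Odyssey imaging; values from bell-shaped non-linear fit with two four-parameter sections (Plateau1, Plateau2, Dip, LogEC50_1/2, nH1/2).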
Background: In western blotting, separated proteins are transferred to a membrane and probed.

The target in assay [2] is T1, IRAK4. Description: Hibit fluorescence detection of proteolysis (IRAK4-HiBiT in HEK293T cells). It is filed as cell-based. The arrangement: host or cells: HEK293T (ATCC). The settings on record: for Dmax: HEK-293T; for DC50: IRAK4-HiBiT, HEK293T cells, 24 h. Summed up: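 Degradation read-out: luminescence from lytic HiBiT detection (15 min, room temperature) after 24 h compound exposure (37 °C, 5% CO2) of HEK293T cells transiently expressing IRAK4 fused to a HiBiT tag. Data fitted to a bell-shaped four-parameter model giving two EC50 values.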

Each structure is given as a SMILES string.

As to `Cn1c(=O)n(C2CCC(=O)NC2=O)c2cccc(N3CCC4(CC3)CN(C[C@H]3CC[C@H](n5cc(-n6cc(-c7ccc8cc(C(N)=O)cnn78)nn6)c(C(F)F)n5)CC3)C4)c21` (some centres unmarked) [Example 64], on IRAK4 [1], the DC50 was above 30 nM and the Dmax lay in the range of 60 to 70%. At IRAK4 [2], the Dmax was above 80% and the DC50 is below 0.5 nM.

Consider `Cn1c(=O)n(C2CCC(=O)NC2=O)c2cccc(N3CCC4(CCN(C[C@H]5CC[C@H](n6cc(-n7cc(-c8cnn9ccc(N%10CCC[C@H](O)C%10)nc89)nn7)c(C(F)F)n6)CC5)CC4)CC3)c21` (some centres unmarked) [Example 142], for which the DC50 at IRAK4 [1] was below 10 nM; on IRAK4 [2], below 0.5 nM. For the same compound, the Dmax is above 70% on IRAK4 [1] and above 80% on IRAK4 [2].

For the compound `C[C@H]1COCCN1c1ccn2ncc(-c3cn(-c4cn([C@H]5CC[C@H](CN6CCC7(CC6)CCN(c6cccc8c6n(C)c(=O)n8C6CCC(=O)NC6=O)C7)CC5)nc4C(F)F)nn3)c2n1` (some centres unmarked) [Compound 204], the DC50 on IRAK4 [1] is below 10 nM; on IRAK4 [2] (read-out: DC50), below 0.5 nM. The Dmax at IRAK4 [1] is 60 to 70%; on IRAK4 [2], 70 to 80%.

`Cn1c(=O)n(C2CCC(=O)NC2=O)c2cccc(N3CCC(N4CCN(C[C@H]5CC[C@H](n6cc(-n7cc(-c8cnn9ccc(N%10CCOCC%10)nc89)nn7)c(C(F)F)n6)CC5)CC4)CC3)c21` (some centres unmarked) [Example 34]: on IRAK4 [1], the DC50 was below 10 nM and the Dmax fell in the range of 60 to 70%. On IRAK4 [2], the Dmax is above 80% and the DC50 is below 0.5 nM.

Consider `C[C@H]1CN(c2cccc3c2n(C)c(=O)n3C2CCC(=O)NC2=O)CCN1C[C@H]1CC[C@H](n2cc(-n3cc(-c4ccc5cc(C(N)=O)cnn45)nn3)c(C(F)F)n2)CC1` (some centres unmarked) [Example 96], for which the DC50 at IRAK4 [1] is below 10 nM; on IRAK4 [2], below 0.5 nM. Further, the figures for the Dmax at IRAK4 [1] and at IRAK4 [2] were above 70% and above 80%, respectively.

As to `Cn1c(=O)n(C2CCC(=O)NC2=O)c2cccc(N3CC4(CCN(C[C@H]5CC[C@H](n6cc(-n7cc(-c8ccc9cc(C(N)=O)cnn89)nn7)c(C(F)F)n6)CC5)CC4)C3)c21` (some centres unmarked) [Example 35], at IRAK4 [1], the DC50 was below 10 nM and the Dmax was 60 to 70%. At IRAK4 [2], the Dmax was above 80% and the DC50 is below 0.5 nM.

Regarding `Cn1c(=O)n(C2CCC(=O)NC2=O)c2cccc(N3CCN(C[C@H]4CC[C@H](n5cc(-n6cc(-c7cnn8ccc(N9CCOCC9)nc78)nn6)c(C(F)F)n5)CC4)CC3)c21` (some centres unmarked) [Example 30], on IRAK4 [1], the DC50 is below 10 nM and the Dmax is below 60%. On IRAK4 [2], this compound showed a Dmax above 80% and a DC50 below 0.5 nM.

Regarding `Cn1c(=O)n(C2CCC(=O)NC2=O)c2cccc(N3CCN(C[C@H]4CC[C@H](n5cc(-n6cc(-c7cnn8ccc(N9CCC[C@H](N)C9)nc78)nn6)c(C(F)F)n5)CC4)CC3)c21` (some centres unmarked) [Example 115], on IRAK4 [1], the DC50 is below 10 nM and the Dmax is above 70%. On IRAK4 [2], this compound came in with a Dmax above 80% and a DC50 below 0.5 nM.

Consider `Cn1c(=O)n(C2CCC(=O)NC2=O)c2cccc(N3CCC4(CCN(C[C@H]5CC[C@H](n6cc(-n7cc(-c8cnn9ccc(NCC%10CC%10)nc89)nn7)c(C(F)F)n6)CC5)C4)CC3)c21` (some centres unmarked) [Example 113], for which, at IRAK4 [1], the DC50 was above 30 nM and the Dmax lay within 60 to 70%. At IRAK4 [2], this compound showed a Dmax above 80% and a DC50 below 0.5 nM.

Regarding `Cn1c(=O)n(C2CCC(=O)NC2=O)c2cccc(N3CCC4(CCN(C[C@H]5CC[C@H](n6cc(-n7cc(-c8cnn9ccc(N[C@@H]%10CCCC[C@@H]%10O)nc89)nn7)c(C(F)F)n6)CC5)CC4)CC3)c21` (some centres unmarked) [Example 151], at IRAK4 [1], the DC50 is below 10 nM and the Dmax is above 70%. Moreover, at IRAK4 [2], the Dmax was above 80% and the DC50 is below 0.5 nM.

As to `Cn1c(=O)n(C2CCC(=O)NC2=O)c2cccc(N3CCC4(CCN(C[C@H]5CC[C@H](n6cc(-n7cc(-c8cnn9ccc(NCCC(C)(C)O)nc89)nn7)c(C(F)F)n6)CC5)CC4)CC3)c21` (some centres unmarked) [Example 126], the DC50 at IRAK4 [1] was below 10 nM; on IRAK4 [2] it was below 0.5 nM. In addition, the Dmax was above 70% at IRAK4 [1] and above 80% at IRAK4 [2].

Regarding `Cn1c(=O)n(C2CCC(=O)NC2=O)c2cccc(N3CCC4(CCN(C[C@H]5CC[C@H](n6cc(-n7cc(-c8cnn9ccc(NCC%10CC%10)nc89)nn7)c(C(F)F)n6)CC5)CC4)CC3)c21` (some centres unmarked) [Example 108], at IRAK4 [1], the DC50 is below 10 nM and the Dmax is above 70%. On IRAK4 [2], this compound returned a Dmax above 80% and a DC50 below 0.5 nM.

With `Cn1c(=O)n(C2CCC(=O)NC2=O)c2cccc(N3CCC4(CCN(C[C@H]5CC[C@H](n6cc(-n7cc(-c8cnn9ccc(N%10CCC[C@H](N)C%10)nc89)nn7)c(C(F)F)n6)CC5)CC4)C3)c21` (some centres unmarked) [Example 116], at IRAK4 [1], the DC50 lay within 10 to 30 nM and the Dmax lay within 60 to 70%. On IRAK4 [2], this compound displayed a Dmax above 80% and a DC50 of 0.5 to 1 nM.

As for `C[C@H]1CN(c2ccn3ncc(-c4cn(-c5cn([C@H]6CC[C@H](CN7CCC8(CC7)CN(c7cccc9c7n(C)c(=O)n9C7CCC(=O)NC7=O)C8)CC6)nc5C(F)F)nn4)c3n2)CCO1` (some centres unmarked) [Compound 178], the DC50 on IRAK4 [1] is below 10 nM; on IRAK4 [2] (read-out: DC50) it was below 0.5 nM. In addition, the values for the Dmax on IRAK4 [1] and on IRAK4 [2] were above 70% and above 80%, respectively.

In the case of `Cn1c(=O)n(C2CCC(=O)NC2=O)c2cccc(N3CCC4(CCN(C[C@H]5CC[C@H](n6cc(-n7cc(-c8cnn9ccc(N[C@H]%10CCCC[C@H]%10O)nc89)nn7)c(C(F)F)n6)CC5)C4)CC3)c21` (some centres unmarked) [Example 147], on IRAK4 [1], the DC50 lay within 10 to 30 nM and the Dmax is above 70%. At IRAK4 [2], the Dmax was above 80% and the DC50 is below 0.5 nM.

`Cn1c(=O)n(C2CCC(=O)NC2=O)c2cccc(N3CCN(C[C@H]4CC[C@H](n5cc(-n6cc(-c7cnn8ccc(N9CCC[C@H](O)C9)nc78)nn6)c(C(F)F)n5)CC4)CC3)c21` (some centres unmarked) [Example 141]: on IRAK4 [1], the DC50 was below 10 nM and the Dmax was above 70%. For the same compound, at IRAK4 [2], the Dmax was above 80% and the DC50 is below 0.5 nM.

Turning to `Cn1c(=O)n(C2CCC(=O)NC2=O)c2cccc(N3CCC4(CCN(C[C@H]5CC[C@H](n6cc(-n7cc(-n8ccc9cc(C(N)=O)cnc98)nn7)c(C(F)F)n6)CC5)CC4)CC3)c21` (some centres unmarked) [Example 99], on IRAK4 [1], the DC50 lay in the range of 10 to 30 nM and the Dmax is below 60%. On IRAK4 [2], this compound showed a Dmax above 80% and a DC50 below 0.5 nM.

On to `Cn1c(=O)n(C2CCC(=O)NC2=O)c2cccc(N3CCC(N4CCN(C[C@H]5CC[C@H](n6cc(-n7cc(-c8cnn9ccc(N[C@H]%10CCCC[C@H]%10O)nc89)nn7)c(C(F)F)n6)CC5)CC4)CC3)c21` (some centres unmarked) [Example 122], for which, at IRAK4 [1], the DC50 was below 10 nM and the Dmax is above 70%. On IRAK4 [2], the Dmax was above 80% and the DC50 is below 0.5 nM.

In the case of `Cn1c(=O)n(C2CCC(=O)NC2=O)c2cccc(N3CCC4(CCN(C[C@H]5CC[C@H](n6cc(-n7cc(-c8cnn9ccc(N%10CCOCC%10)nc89)nn7)c(C(F)F)n6)CC5)C4)CC3)c21` (some centres unmarked) [Example 39, 3-(4-(2-(((1r,4r)-4-(3-(difluoromethyl)-4-(4-(5-morpholinopyrazolo[1,5-a]pyrimidin-3-yl)-1H-1,2,3-triazol-1-yl)-1H-pyrazol-1-yl)cyclohexyl)methyl)-2,8-diazaspiro[4.5]dec-8-yl)-3-methyl-2-oxo-2,3-dihydro-1H-benzo[d]imidazol-1-yl)piperidine-2,6-dione], at IRAK4 [1], the DC50 was below 10 nM and the Dmax is above 70%. At IRAK4 [2], this compound had a Dmax above 80% and a DC50 below 0.5 nM.

Turning to `Cn1c(=O)n(C2CCC(=O)NC2=O)c2cccc(N3CCC4(CCN(C[C@H]5CC[C@H](n6cc(-n7cc(-c8cnn9ccc(N%10CCC(O)CC%10)nc89)nn7)c(C(F)F)n6)CC5)CC4)CC3)c21` (some centres unmarked) [Example 136], on IRAK4 [1], the DC50 is below 10 nM and the Dmax is above 70%. At IRAK4 [2], the Dmax is above 80% and the DC50 is below 0.5 nM.

Consider `Cn1c(=O)n(C2CCC(=O)NC2=O)c2cccc(N3CCN(C[C@H]4CC[C@H](n5cc(-n6cc(-c7cnn8ccc(N9CCC(O)CC9)nc78)nn6)c(C(F)F)n5)CC4)CC3)c21` (some centres unmarked) [Example 140], for which, at IRAK4 [1], the DC50 lay within 10 to 30 nM and the Dmax was above 70%. Moreover, on IRAK4 [2], the Dmax was above 80% and the DC50 is below 0.5 nM.

Consider `Cn1c(=O)n(C2CCC(=O)NC2=O)c2cccc(N3CCC4(CCN(C[C@H]5CC[C@H](n6cc(-n7cc(-c8ccc9cc(C(N)=O)cnn89)nn7)c(C(F)F)n6)CC5)C4)CC3)c21` (some centres unmarked) [Example 37], for which, on IRAK4 [1], the DC50 was below 10 nM and the Dmax was in the range of 60 to 70%. For the same compound, at IRAK4 [2], the Dmax was above 80% and the DC50 was below 0.5 nM.

`Cn1c(=O)n(C2CCC(=O)NC2=O)c2cccc(N3CCC4(CCN(C[C@H]5CC[C@H](n6cc(-n7cc(-c8cnn9ccc(N%10CCC[C@H](N)C%10)nc89)nn7)c(C(F)F)n6)CC5)C4)CC3)c21` (some centres unmarked) [Example 119]: at IRAK4 [1], the DC50 lay within 10 to 30 nM and the Dmax was above 70%. Moreover, at IRAK4 [2], the Dmax was above 80% and the DC50 was in the range of 0.5 to 1 nM.

For the origin of these results see patent publication EP4759807A1, “PROTEOLYSIS TARGETING CHIMERA COMPOUND FOR DEGRADING IRAK4 AND USE THEREOF” (Shenzhen Zhongge Biological Technology Co., Ltd., priority 2023, dated 2025).
